Results published in patent publication US7482344B2, “Tricyclic steroid hormone nuclear receptor modulators” (Eli Lilly and Company, priority 2003, dated 2009).

Each molecule was assayed against T1, human GR (glucocorticoid receptor) (Homo sapiens, UniProt P04150) (assay: Alternative Binding Assay Protocol (Method 2), 293-GR lysate, 3H-dexamethasone competition). Conditions: 0.3 nM 3H-dexamethasone.
T1 construct: expressed in transfected cells; host or cells: 293 cells
T1 sequence (P04150 1-777): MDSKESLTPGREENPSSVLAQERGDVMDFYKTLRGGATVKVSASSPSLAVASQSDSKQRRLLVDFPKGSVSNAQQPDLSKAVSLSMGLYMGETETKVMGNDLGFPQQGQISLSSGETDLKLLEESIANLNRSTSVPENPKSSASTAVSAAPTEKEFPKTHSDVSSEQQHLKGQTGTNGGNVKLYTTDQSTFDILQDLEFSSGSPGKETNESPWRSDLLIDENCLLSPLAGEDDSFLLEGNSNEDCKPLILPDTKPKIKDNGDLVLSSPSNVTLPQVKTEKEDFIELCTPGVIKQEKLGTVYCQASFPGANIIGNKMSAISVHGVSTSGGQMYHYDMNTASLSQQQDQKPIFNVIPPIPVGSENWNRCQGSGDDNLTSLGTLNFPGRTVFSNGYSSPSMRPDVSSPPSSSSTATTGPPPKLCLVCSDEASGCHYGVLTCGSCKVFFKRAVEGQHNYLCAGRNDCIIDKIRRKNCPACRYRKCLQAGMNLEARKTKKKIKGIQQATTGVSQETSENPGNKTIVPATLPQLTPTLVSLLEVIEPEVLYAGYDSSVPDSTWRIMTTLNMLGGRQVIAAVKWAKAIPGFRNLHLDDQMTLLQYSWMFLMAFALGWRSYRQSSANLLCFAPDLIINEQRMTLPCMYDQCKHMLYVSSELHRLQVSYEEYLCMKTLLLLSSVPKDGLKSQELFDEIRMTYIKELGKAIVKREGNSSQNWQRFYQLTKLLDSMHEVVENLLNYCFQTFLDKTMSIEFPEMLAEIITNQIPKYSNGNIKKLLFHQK
Method: Alternative Binding Assay Protocol for MR, GR, AR, and PR (Method 2):
Cell lysates from 293 cells overexpressing human GR (glucocorticoid receptor), AR (androgen receptor), MR (mineralocorticoid receptor) or PR (progesterone receptor) are used for competition binding assays to determine Ki values for test compounds. Briefly, competition binding assays are run in a buffer containing 20 mM Hepes, pH 7.6, 0.2 mM EDTA, 75 mM NaCl, 1.5 mM MgCl2, 20% glycerol, 20 mM sodium molybdate, 0.2 mM DTT, 20 ug/ml aprotinin and 20 ug/ml leupeptin, using either 0.3 nM ^3H-dexamethasone for GR binding, 0.36 nM ^3H-methyltrienolone for AR binding, 0.25 nM ^3H-aldosterone for MR binding, or 0.29 nM ^3H-methyltrienolone for PR binding, and either 20 ug 293-GR lysate, 22 ug 293-AR lysate, 20 ug 293-MR lysate or 40 ug 293-PR lysate per well. Competing compounds are added various concentrations in half-log increments. Non-specific binding is determined in the presence of 500 nM dexamethasone for GR binding, 500 nM aldosterone for MR binding, or 500 nM methyltrienolone for AR and PR binding. The binding reaction (140 μl) is incubated for overnight at 4° C. then 70 μl of cold charcoal-dextran buffer (containing per 50 ml of assay buffer, 0.75 g of charcoal and 0.25 g of dextran) is added to each reaction. Plates are mixed 8 minutes on an orbital shaker at 4° C. Plates are then centrifuged at 3,000 rpm at 4° C. for 10 minutes. An aliquot of 120 μl of the mix is transferred to another 96-well plate and 175 μl of Wallac Optiphase “Hisafe 3” scintillation fluid is added to each well. Plates are sealed and shaken vigorously on an orbital shaker. After an incubation of 2 hrs, plates are read in a Wallac Microbeta counter. The data is used to calculate an IC50 and % Inhibition at 10 μM. The Kd for ^3H-dexamethasone for GR binding, ^3H-methyltrienolone for AR binding, ^3H-aldosterone for MR binding, or ^3H-methyltrienolone for PR binding, is determined by saturation binding. The IC50 values for compounds are converted to Ki using Cheng-Prusoff equation and the Kd determined by saturation binding assay.

Ki | SMILES
< 500 nM | CC(=C1c2ccccc2Sc2ccccc21)c1cccc(NS(C)(=O)=O)c1 [Example 4, 9-[1-(3-methylsulfonoylaminophenyl)ethylene] thioxanthine]
< 1000 nM | O=c1[nH]c2ccc(C=C3c4ccc(F)cc4Sc4cc(F)ccc43)cc2[nH]1 [Example 5, 5-(3,6-Difluoro-thioxanthen-9-ylidenemethyl)-1,3-dihydro-benzoimidazol-2-one]
< 500 nM | CC(=C1c2ccccc2Sc2ccccc21)c1cccc(N)c1 [Example 6]
< 500 nM | CS(=O)(=O)Nc1cccc(C=C2c3ccccc3Sc3ccccc32)c1 [Example 8]
< 1000 nM | Nc1cccc(C=C2c3ccccc3Sc3ccccc32)c1 [Example 9]
< 10000 nM | O=c1[nH]c2ccc(C=C3c4ccccc4Sc4ccccc43)cc2[nH]1 [Example 10]
< 500 nM | O=c1[nH]c2cc(C=C3c4ccccc4Sc4ccccc43)ccc2o1 [Example 11]
< 500 nM | O=c1[nH]c2cc(C=C3c4ccccc4Sc4ccccc43)ccc2s1 [Example 12]
< 1000 nM | O=c1[nH]c2cc(C=C3c4ccccc4Sc4ccccc43)ccc2n1CCN1CCOCC1 [Example 13]
< 10000 nM | CN1CCN(CCn2c(=O)[nH]c3cc(C=C4c5ccccc5Sc5ccccc54)ccc32)CC1 [Example 14]
< 500 nM | Oc1ccccc1C=C1c2ccccc2Sc2ccccc21 [Example 15]
